Test results published in patent US20240368214A1, “POSITIVE NMDA-MODULATING COMPOUNDS AND METHODS OF USE THEREOF” (SAGE THERAPEUTICS, INC., priority 2021, published 2024).
Like-named read-outs stand apart in the source and are kept apart here.

Biological target: T1, recombinant human GluN1/GluN2A receptor (Homo sapiens, UniProt Q05586+Q12879)
T1 construct: expressed in transfected cells; host or cells: HEK293, tetracycline-inducible expression
Test: Whole-cell patch clamp of mammalian cells (Syncropatch 384i), NMDA modulation
Format: cell-based
Conditions: HEK293 cells, human GluN1/GluN2A, glutamate 1 μM / glycine 100 μM, -80 mV, peak amplitude increase; for EC50: read-out: EC50
In short: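 Modulation read as fold rise in peak current, (Icomp/Icontrol)−1, from 8 concentrations with ≥2 wells each, four-parameter fit. Compound pre-incubated 120 s then co-applied with 1 μM glutamate plus 100 μM glycine; tetracycline-inducible HEK293 GluN1/GluN2A cells clamped at −80 mV.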

T1 sequence (Q12879 23-1464, other chains not shown): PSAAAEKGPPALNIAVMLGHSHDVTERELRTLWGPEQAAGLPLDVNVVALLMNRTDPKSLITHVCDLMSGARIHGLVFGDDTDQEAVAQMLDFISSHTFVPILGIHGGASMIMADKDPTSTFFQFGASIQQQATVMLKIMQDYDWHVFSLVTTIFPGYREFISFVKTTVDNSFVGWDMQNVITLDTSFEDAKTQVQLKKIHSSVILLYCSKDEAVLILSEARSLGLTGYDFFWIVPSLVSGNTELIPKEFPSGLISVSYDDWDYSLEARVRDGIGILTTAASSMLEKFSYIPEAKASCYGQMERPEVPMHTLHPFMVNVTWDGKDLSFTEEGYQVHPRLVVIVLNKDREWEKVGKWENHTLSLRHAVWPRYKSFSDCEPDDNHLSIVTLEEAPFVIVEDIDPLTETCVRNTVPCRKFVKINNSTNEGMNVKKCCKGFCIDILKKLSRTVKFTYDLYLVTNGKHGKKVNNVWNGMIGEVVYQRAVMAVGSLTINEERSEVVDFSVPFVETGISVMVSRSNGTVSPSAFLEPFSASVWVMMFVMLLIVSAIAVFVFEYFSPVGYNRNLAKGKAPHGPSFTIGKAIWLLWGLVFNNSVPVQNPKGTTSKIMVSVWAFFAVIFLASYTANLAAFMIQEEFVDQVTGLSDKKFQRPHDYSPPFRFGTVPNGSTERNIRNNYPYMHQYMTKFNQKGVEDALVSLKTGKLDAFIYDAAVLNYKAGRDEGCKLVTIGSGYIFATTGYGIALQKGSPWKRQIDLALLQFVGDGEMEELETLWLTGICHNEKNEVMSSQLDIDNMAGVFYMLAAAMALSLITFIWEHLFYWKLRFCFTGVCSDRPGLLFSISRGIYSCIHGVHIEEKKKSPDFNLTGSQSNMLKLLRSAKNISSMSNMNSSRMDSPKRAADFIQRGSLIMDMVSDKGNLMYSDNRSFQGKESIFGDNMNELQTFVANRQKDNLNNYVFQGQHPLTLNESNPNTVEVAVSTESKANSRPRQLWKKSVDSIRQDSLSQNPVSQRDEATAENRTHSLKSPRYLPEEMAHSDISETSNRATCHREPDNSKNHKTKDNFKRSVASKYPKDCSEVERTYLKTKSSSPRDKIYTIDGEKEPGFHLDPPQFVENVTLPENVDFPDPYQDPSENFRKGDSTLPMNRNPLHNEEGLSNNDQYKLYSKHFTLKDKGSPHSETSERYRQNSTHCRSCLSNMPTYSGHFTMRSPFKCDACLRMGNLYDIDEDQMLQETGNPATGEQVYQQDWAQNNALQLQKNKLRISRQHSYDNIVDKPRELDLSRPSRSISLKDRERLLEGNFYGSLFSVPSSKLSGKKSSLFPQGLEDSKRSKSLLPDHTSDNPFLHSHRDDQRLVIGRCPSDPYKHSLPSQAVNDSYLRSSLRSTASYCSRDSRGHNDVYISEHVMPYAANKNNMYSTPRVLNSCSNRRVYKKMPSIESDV

C[C@H](CC[C@@H](O)C1(C#N)CC1)[C@H]1CC[C@H]2[C@@H]3CC=C4C[C@@](C)(O)CC[C@]4(C)[C@H]3CC[C@]12C [Compound C-23, 1-((1R,4R)-1-hydroxy-4-((3S,8S,9S,10R,13R,14S,17R)-3-hydroxy-3,10,13-trimethyl-2,3,4,7,8,9,10,11,12,13,14,15,16,17-tetradecahydro-1H-cyclopenta[a]phenanthren-17-yl)pentyl)cyclopropane-1-carbonitrile]
EC50 (Table C-2): 1 to 100 nM

CC[C@]12CC[C@H]3[C@@H](CC=C4C[C@@](C)(O)CC[C@@]43C)[C@@H]1CC[C@@H]2[C@H](C)CC[C@H](O)C(C)C [Compound F-3, (3S,8S,9S,10R,13R,14S,17R)-13-ethyl-17-((2R,5S)-5-hydroxy-6-methylheptan-2-yl)-3,10-dimethyl-2,3,4,7,8,9,10,11,12,13,14,15,16,17-tetradecahydro-1H-cyclopenta[a]phenanthren-3-ol]
EC50 (Table F-2): 100 to 500 nM

CC[C@]1(O)CC[C@@]2(C)C(=CC[C@H]3[C@@H]4CC[C@H]([C@@H](CCCC(C)(C)O)OC)[C@@]4(C)CC[C@@H]32)C1 [Compound A-12, (3S,8S,9S,10R,13S,14S,17S)-3-ethyl-17-((R)-5-hydroxy-1-methoxy-5-methylhexyl)-10,13-dimethyl-2,3,4,7,8,9,10,11,12,13,14,15,16,17-tetradecahydro-1H-cyclopenta[a]phenanthren-3-ol]
Emax (Table A-2): 100 to 200% | EC50 (Table A-2): 1 to 100 nM

CC[C@]1(O)CC[C@@]2(C)[C@@H](CC[C@@H]3[C@@H]2CC[C@]2(C)[C@@H]([C@H](C)CC[C@H](O)C(C)(C)C#N)CC[C@@H]32)C1 [Compound C-2, (3S,6R)-6-((3S,5S,8R,9S,10S,13R,14S,17R)-3-ethyl-3-hydroxy-10,13-dimethylhexadecahydro-1H-cyclopenta[a]phenanthren-17-yl)-3-hydroxy-2,2-dimethylheptanenitrile]
Emax (Table C-2): 100 to 200% | EC50 (Table C-2): 1 to 100 nM

CC[C@]1(O)CC[C@@]2(C)C(=CC[C@H]3[C@@H]4CC[C@H]([C@H](C)CC[C@H](O)C5(C#N)CCC5)[C@@]4(C)CC[C@@H]32)C1 [Compound C-18, 1-((1S,4R)-4-((3S,8S,9S,10R,13R,14S,17R)-3-ethyl-3-hydroxy-10,13-dimethyl-2,3,4,7,8,9,10,11,12,13,14,15,16,17-tetradecahydro-1H-cyclopenta[a]phenanthren-17-yl)-1-hydroxypentyl)cyclobutane-1-carbonitrile]
EC50 (Table C-2): 100 to 500 nM

CC[C@]1(O)CC[C@@]2(C)C(=CC[C@H]3[C@@H]4CC[C@H]([C@H](C)CC[C@H](O)C(C)(C)C#N)[C@@]4(C)CC[C@@H]32)C1 [Compound C-13, (3S,6R)-6-((3S,8S,9S,10R,13R,14S,17R)-3-ethyl-3-hydroxy-10,13-dimethyl-2,3,4,7,8,9,10,11,12,13,14,15,16,17-tetradecahydro-1H-cyclopenta[a]phenanthren-17-yl)-3-hydroxy-2,2-dimethylheptanenitrile]
Emax (Table C-2): 100 to 200% | EC50 (Table C-2): 1 to 100 nM

C[C@H](CC[C@@H](O)C1(C#N)CCC1)[C@H]1CC[C@H]2[C@@H]3CC[C@H]4C[C@@](C)(O)CC[C@]4(C)C3=CC[C@]12C [Compound C-31, 1-((1R,4R)-1-hydroxy-4-((3S,5S,8S,10S,13R,14S,17R)-3-hydroxy-3,10,13-trimethyl-2,3,4,5,6,7,8,10,12,13,14,15,16,17-tetradecahydro-1H-cyclopenta[a]phenanthren-17-yl)pentyl)cyclobutane-1-carbonitrile]
EC50 (Table C-2): 1 to 100 nM | EC50 (Table E-2): 1 to 100 nM

C[C@H](CCC1(O)CCC(C)(C)CC1)[C@H]1CCC[C@H]2[C@@H]3CC[C@H]4C[C@](O)(C(F)(F)F)CC[C@]4(C)[C@H]3CC[C@]12C [Compound H-3, (2S,4aS,4bS,6aR,7R,10aS,10bR,12aS)-7-((R)-4-(1-hydroxy-4,4-dimethylcyclohexyl)butan-2-yl)-4a,6a-dimethyl-2 (trifluoromethyl)octadecahydrochrysen-2-ol]
EC50 (Table H-2): > 1000 nM
